Data from the NIST ThermoML archive (doi:10.1021/acs.jced.7b00363).
Numbers after ± are expanded uncertainties.

Columns and labels:
[1] = Surface laser light scattering (SLLS); for viscosity: Liquid
[2] = wn = mass fraction of the nth substance listed; details: Surface laser light scattering (SLLS); for viscosity: Liquid

Row | Compound | surface tension liquid-gas ([1]; 398.15 K) | viscosity ([1]; 398.15 K) | surface tension liquid-gas ([1]; 423.15 K) | viscosity ([1]; 423.15 K) | surface tension liquid-gas ([1]; 448.15 K) | viscosity ([1]; 448.15 K) | surface tension liquid-gas ([1]; 473.15 K) | viscosity ([1]; 473.15 K) | surface tension liquid-gas ([1]; 498.15 K) | viscosity ([1]; 498.15 K) | surface tension liquid-gas ([1]; 523.15 K) | viscosity ([1]; 523.15 K) | surface tension liquid-gas ([1]; 548.15 K) | viscosity ([1]; 548.15 K) | surface tension liquid-gas ([1]; 573.15 K) | viscosity ([1]; 573.15 K) | other results
1 | CCCCCCCCCCCC [dodecane] | 16.22 ± 0.14 mN/m | 0.4003 ± 0.012 mPa·s | 14.33 ± 0.26 mN/m | 0.3223 ± 0.011 mPa·s | 12.38 ± 0.24 mN/m | 0.2595 ± 0.01 mPa·s | 10.67 ± 0.08 mN/m | 0.2156 ± 0.0094 mPa·s | 8.95 ± 0.16 mN/m | 0.1821 ± 0.0092 mPa·s | 7.25 ± 0.08 mN/m | 0.1532 ± 0.0089 mPa·s | 5.64 ± 0.07 mN/m | 0.1277 ± 0.0087 mPa·s | 4.14 ± 0.07 mN/m | 0.1051 ± 0.0086 mPa·s | surface tension liquid-gas ([1]; 323.15 K): 21.64 ± 0.23 mN/m; viscosity ([1]; 323.15 K): 0.9225 ± 0.025 mPa·s; surface tension liquid-gas ([1]; 348.15 K): 19.91 ± 0.3 mN/m; viscosity ([1]; 348.15 K): 0.6763 ± 0.017 mPa·s; surface tension liquid-gas ([1]; 373.15 K): 18.19 ± 0.31 mN/m; viscosity ([1]; 373.15 K): 0.507 ± 0.013 mPa·s
2 | CCCCCCCCCCCCCCCCCCCCCCCCCCCC [octacosane] | 21.33 ± 0.69 mN/m | 1.814 ± 0.082 mPa·s | 19.53 ± 0.52 mN/m | 1.361 ± 0.043 mPa·s | 17.78 ± 0.31 mN/m | 1.025 ± 0.025 mPa·s | 16.57 ± 0.48 mN/m | 0.8318 ± 0.02 mPa·s | 15.38 ± 0.29 mN/m | 0.6847 ± 0.019 mPa·s | 14.18 ± 0.26 mN/m | 0.5675 ± 0.017 mPa·s | 12.86 ± 0.18 mN/m | 0.4753 ± 0.016 mPa·s | 11.51 ± 0.18 mN/m | 0.3995 ± 0.012 mPa·s | –
3 | CCCCCCCCCCCCCCCCCCCCCCCCCCCC [octacosane] + CCCCCCCCCCCC | – | – | – | – | – | – | – | – | – | – | – | – | – | – | – | – | surface tension liquid-gas ([2]; 373.15 K, w2 = 0.156): 21.71 ± 0.57 mN/m; viscosity ([2]; 373.15 K, w2 = 0.156): 1.944 ± 0.064 mPa·s; surface tension liquid-gas ([2]; 398.15 K, w2 = 0.156): 19.8 ± 0.5 mN/m; viscosity ([2]; 398.15 K, w2 = 0.156): 1.412 ± 0.043 mPa·s; surface tension liquid-gas ([2]; 423.15 K, w2 = 0.156): 18.5 ± 0.25 mN/m; viscosity ([2]; 423.15 K, w2 = 0.156): 1.089 ± 0.028 mPa·s; surface tension liquid-gas ([2]; 448.15 K, w2 = 0.155): 17.07 ± 0.24 mN/m; viscosity ([2]; 448.15 K, w2 = 0.155): 0.8604 ± 0.023 mPa·s; surface tension liquid-gas ([2]; 473.15 K, w2 = 0.155): 15.59 ± 0.21 mN/m; viscosity ([2]; 473.15 K, w2 = 0.155): 0.6912 ± 0.016 mPa·s; surface tension liquid-gas ([2]; 498.15 K, w2 = 0.154): 14.15 ± 0.19 mN/m; viscosity ([2]; 498.15 K, w2 = 0.154): 0.5671 ± 0.016 mPa·s; surface tension liquid-gas ([2]; 523.15 K, w2 = 0.152): 12.84 ± 0.23 mN/m; viscosity ([2]; 523.15 K, w2 = 0.152): 0.4787 ± 0.014 mPa·s; surface tension liquid-gas ([2]; 548.15 K, w2 = 0.15): 11.56 ± 0.16 mN/m; viscosity ([2]; 548.15 K, w2 = 0.15): 0.4075 ± 0.013 mPa·s; surface tension liquid-gas ([2]; 573.15 K, w2 = 0.148): 10.3 ± 0.19 mN/m; viscosity ([2]; 573.15 K, w2 = 0.148): 0.3445 ± 0.011 mPa·s
